The source of these data is US11390604B2 (Hoffmann-La Roche Inc., priority 2019, dated 2022).

Where a name gives a salt, the structure may show the parent alone. Read-outs that look alike come from different tables or passages of the source.

This assay has as its system Acinetobacter baumannii ATCC 17961. Briefly: Antimicrobial susceptibility testing: 90% growth inhibitory concentration (IC90) determination. The format is cell-based. The method, boiled down:
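Broth microdilution in Iso-Sensitest medium, twofold series (e.g. 50 to 0.097 μM final), ~5×10^5 CFU/ml inoculum, 35±2 °C. OD600 read every 20 min over 16 h. IC90 derived from growth inhibition during logarithmic phase.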

Setting [1] is: ATCC17961, Acinetobacter baumannii ATCC 17961, Iso-Sensitest broth, read-out: ATCC 17961 IC90.

For `C[C@H](N)C(=O)N1CCN(C(=O)c2ccc(NC(=O)c3ncc(-c4cn(CC#N)nc4C(F)(F)F)n3C)cc2Cl)CC1` [Example 71, N-[4-[4-[(2S)-2-aminopropanoyl]piperazine-1-carbonyl]-3-chlorophenyl]-5-[1-(cyanomethyl)-3-(trifluoromethyl)pyrazol-4-yl]-1-methylimidazole-2-carboxamide;2,2,2-trifluoroacetic acid], the IC90 under setting [1] was 216 nM.
The same measure, in the same setting: in the case of `Cn1c(-c2cn(CC3CCC3)nc2C(F)(F)F)cnc1C(=O)Nc1ccc(C(=O)N2CCN(C(=O)CN)CC2)c(Cl)c1` [Example 202, N-(3-chloro-4-(4-glycylpiperazine-1-carbonyl)phenyl)-5-(1-(cyclobutylmethyl)-3-(trifluoromethyl)-1H-pyrazol-4-yl)-1-methyl-1H-imidazole-2-carboxamide hydrochloride] it was 216 nM.
On the same count and under the same terms, with `Cn1c(-c2cn(C3CC3)nc2C(F)(F)F)cnc1C(=O)Nc1ccc(C(=O)N[C@H]2[C@@H]3CN(C(=O)N[C@@H]4CCC[C@@H]4N)C[C@@H]32)c(Cl)c1` [Example 334, exo-N-((1R,2S)-2-aminocyclopentyl)-6-(2-chloro-4-(5-(1-cyclopropyl-3-(trifluoromethyl)-1H-pyrazol-4-yl)-1-methyl-1H-imidazole-2-carboxamido)benzamido)-3-azabicyclo[3.1.0]hexane-3-carboxamide formate] the figure was 423 nM; with `CC(C)NC(=O)Cn1cc(-c2cnc(C(=O)Nc3ccc(C(=O)N4CCN(C(=O)C5CCNCC5)CC4)c(Cl)c3)n2C)c(C(F)(F)F)n1` [Example 24, N-(3-chloro-4-(4-(piperidine-4-carbonyl)piperazine-1-carbonyl)phenyl)-5-(1-(2-(isopropylamino)-2-oxoethyl)-3-(trifluoromethyl)-1H-pyrazol-4-yl)-1-methyl-1H-imidazole-2-carboxamide formate], 981 nM.
For the molecule `C=C(F)Cn1cc(-c2cnc(C(=O)Nc3ccc(C(=O)N[C@H]4[C@@H]5CN(C(=O)N[C@@H]6CNC[C@H]6O)C[C@@H]54)c(Cl)c3)n2C)c(C(F)(F)F)n1` [Example 176, (1R,5S,6s)-6-(2-chloro-4-(5-(1-(2-fluoroallyl)-3-(trifluoromethyl)-1H-pyrazol-4-yl)-1-methyl-1H-imidazole-2-carboxamido)benzamido)-N-(trans-4-hydroxypyrrolidin-3-yl)-3-azabicyclo[3.1.0]hexane-3-carboxamide Formate], the IC90 under setting [1] came out at 155 nM.
For `Cn1c(-c2cn(C3CC3)nc2C(F)(F)F)cnc1C(=O)Nc1ccc(C(=O)N2CCN(C(=O)[C@]3(C)CCCN3)CC2)c(Cl)c1` [Example 258, (S)-N-(3-chloro-4-(4-(2-methylpyrrolidine-2-carbonyl)piperazine-1-carbonyl)phenyl)-5-(1-cyclopropyl-3-(trifluoromethyl)-1H-pyrazol-4-yl)-1-methyl-1H-imidazole-2-carboxamide hydrochloride], the IC90 under setting [1] worked out at 314 nM.
On the same count and under the same terms, in the case of `C#CCn1cc(-c2cnc(C(=O)Nc3ccc(C(=O)N4CCN(C(=O)[C@H]5CCNC5)CC4)c(Cl)c3)n2C)c(C(F)(F)F)n1` [Example 37, N-[3-chloro-4-[4-[(3S)-pyrrolidine-3-carbonyl]piperazine-1-carbonyl]phenyl]-1-methyl-5-[1-prop-2-ynyl-3-(trifluoromethyl)pyrazol-4-yl]imidazole-2-carboxamide hydrochloride] it was 233 nM.
As for `Cn1c(-c2cn(CC3CC3)nc2C(F)(F)F)cnc1C(=O)Nc1ccc(C(=O)N2CCN(C(=O)N[C@H]3C[C@@H](N)C3)CC2)c(Cl)c1` [Example 169, rac-N-((1s,3s)-3-aminocyclobutyl)-4-(2-chloro-4-(5-(1-(cyclopropylmethyl)-3-(trifluoromethyl)-1H-pyrazol-4-yl)-1-methyl-1H-imidazole-2-carboxamido)benzoyl)piperazine-1-carboxamide Hydrochloride], the IC90 (Acinetobacter baumannii, ATCC17961, read-out: ATCC 17961 IC90, Acinetobacter baumannii ATCC 17961, Iso-Sensitest broth) came out at 245 nM.
Regarding `C#CCn1cc(-c2cnc(C(=O)Nc3ccc(C(=O)NCCOCC(C)(C)N)c(Cl)c3)n2C)c(C(F)(F)F)n1` [Example 46, N-(4-((2-(2-amino-2-methylpropoxy)ethyl)carbamoyl)-3-chlorophenyl)-1-methyl-5-(1-(prop-2-yn-1-yl)-3-(trifluoromethyl)-1H-pyrazol-4-yl)-1H-imidazole-2-carboxamide 2,2,2-trifluoroacetate], the IC90 under setting [1] was 263 nM.
Still for that read-out and setting: with `Cn1c(-c2cn(C3CC3(F)F)nc2C(F)(F)F)cnc1C(=O)Nc1ccc(C(=O)N2CCC(F)(CN)CC2)c(Cl)c1` (stereo not drawn) [Example 201, N-(4-(4-(aminomethyl)-4-fluoropiperidine-1-carbonyl)-3-chlorophenyl)-5-(1-(2,2-difluorocyclopropyl)-3-(trifluoromethyl)-1H-pyrazol-4-yl)-1-methyl-1H-imidazole-2-carboxamide formate] the figure was 216 nM; with `C=CCn1cc(-c2cnc(C(=O)Nc3ccc(C(=O)NC4C5CN(C(=O)C6CCNCC6)CC54)c(Cl)c3)n2C)c(C(F)(F)F)n1` (stereo not drawn) [Example 215, 5-(1-allyl-3-(trifluoromethyl)-1H-pyrazol-4-yl)-N-(3-chloro-4-((3-(piperidine-4-carbonyl)-3-azabicyclo[3.1.0]hexan-6-yl)carbamoyl)phenyl)-1-methyl-1H-imidazole-2-carboxamide formate], 243 nM; with `Cn1c(-c2cn(C3CCC3)nc2C(F)(F)F)cnc1C(=O)Nc1ccc(C(=O)N2CCN(C(=O)C3CCNCC3)CC2)c(Cl)c1` [Example 10, N-(3-chloro-4-(4-(piperidine-4-carbonyl)piperazine-1-carbonyl)phenyl)-5-(1-cyclobutyl-3-(trifluoromethyl)-1H-pyrazol-4-yl)-1-methyl-1H-imidazole-2-carboxamide hydrochloride], 339 nM.
With `Cn1c(-c2cn(C3CCN(C4CC4)C3=O)nc2C(F)(F)F)cnc1C(=O)Nc1ccc(C(=O)N2CCN(C(=O)C3CCNCC3)CC2)c(Cl)c1` (stereo not drawn) [Example 26, N-(3-chloro-4-(4-(piperidine-4-carbonyl)piperazine-1-carbonyl)phenyl)-5-(1-(1-cyclopropyl-2-oxopyrrolidin-3-yl)-3-(trifluoromethyl)-1H-pyrazol-4-yl)-1-methyl-1H-imidazole-2-carboxamide formate], the IC90 under setting [1] came to 1910 nM.
Turning to `CCc1cc(NC(=O)c2ncc(-c3cn(CC(F)F)nc3C(F)(F)F)n2C)ccc1C(=O)N1CCN(C(=O)[C@@H]2CCNC2)CC1` [Example 156, 5-[1-(2,2-difluoroethyl)-3-(trifluoromethyl)pyrazol-4-yl]-N-[3-ethyl-4-[4-[(3R)-pyrrolidine-3-carbonyl]piperazine-1-carbonyl]phenyl]-1-methylimidazole-2-carboxamide;formic acid], under setting [1], the IC90 was 758 nM.
Same read-out and setting: with `Cn1c(-c2cn(CCF)nc2C(F)(F)F)cnc1C(=O)Nc1ccc(C(=O)N2CCN(C(=O)C3CCNCC3)CC2)c(Cl)c1` [Example 11, N-(3-chloro-4-(4-(piperidine-4-carbonyl)piperazine-1-carbonyl)phenyl)-5-(1-(2-fluoroethyl)-3-(trifluoromethyl)-1H-pyrazol-4-yl)-1-methyl-1H-imidazole-2-carboxamide hydrochloride] the figure was 466 nM.
For `Cn1c(-c2cn(C3CC3)nc2C(F)(F)F)cnc1C(=O)Nc1ccc(C(=O)N2CCC(CCN)CC2)c(Cl)c1` [Example 191, N-(4-(4-(2-aminoethyl)piperidine-1-carbonyl)-3-chlorophenyl)-5-(1-cyclopropyl-3-(trifluoromethyl)-1H-pyrazol-4-yl)-1-methyl-1H-imidazole-2-carboxamide formate], under setting [1], the IC90 was 176 nM.
Regarding `Cn1cc(-c2cnc(C(=O)Nc3ccc(C(=O)N4CCN(C(=O)C5CCNCC5)CC4)c(Cl)c3)n2C)c(C(F)(F)F)n1` [Example 115, N-[3-chloro-4-[4-(piperidine-4-carbonyl)piperazine-1-carbonyl]phenyl]-1-methyl-5-[1-methyl-3-(trifluoromethyl)pyrazol-4-yl]imidazole-2-carboxamide;hydrochloride], the concentration for an effect of 90% (IC90) under setting [1] came to 1250 nM.
On the same count and under the same terms, in the case of `Cn1c(-c2cn(C3CC3(F)F)nc2C(F)(F)F)cnc1C(=O)Nc1ccc(C(=O)NC2[C@H]3CN(C(=O)N[C@H]4C[C@@H](N)C4)C[C@@H]23)c(Cl)c1` (stereo partly drawn) [Example 265, cis-N-(3-aminocyclobutyl)-6-[[2-chloro-4-[[5-[1-(2,2-difluorocyclopropyl)-3-(trifluoromethyl)pyrazol-4-yl]-1-methylimidazole-2-carbonyl]amino]benzoyl]amino]-3-azabicyclo[3.1.0]hexane-3-carboxamide, formate salt] it was 328 nM.
On to `C=C(C)Cn1cc(-c2cnc(C(=O)Nc3ccc(C(=O)N4CCN(C(=O)[C@H]5[C@@H]6CNC[C@@H]65)CC4)c(Cl)c3)n2C)c(C(F)(F)F)n1` [Example 257, rac-N-(4-(4-((1R,5S,6r)-3-azabicyclo[3.1.0]hexane-6-carbonyl)piperazine-1-carbonyl)-3-chlorophenyl)-1-methyl-5-(1-(2-methylallyl)-3-(trifluoromethyl)-1H-pyrazol-4-yl)-1H-imidazole-2-carboxamide hydrochloride], for which the 90% effect concentration (IC90) under setting [1] came to 313 nM.
The same measure, in the same setting: in the case of `Cn1c(-c2cn(CC3CC3)nc2C(F)(F)F)cnc1C(=O)Nc1ccc(C(=O)NC2C3CN(C(=O)C4CCNCC4)CC32)c(Cl)c1` (stereo not drawn) [Example 227, N-(3-chloro-4-((3-(piperidine-4-carbonyl)-3-azabicyclo[3.1.0]hexan-6-yl)carbamoyl)phenyl)-5-(1-(cyclopropylmethyl)-3-(trifluoromethyl)-1H-pyrazol-4-yl)-1-methyl-1H-imidazole-2-carboxamide formate] it was 262 nM; in that of `Cn1c(-c2cn(CCF)nc2C(F)(F)F)cnc1C(=O)Nc1ccc(C(=O)N2CCN(C(=O)[C@H]3C[C@@H](N)C3)CC2)c(Cl)c1` [Example 74, N-[4-[4-(3-aminocyclobutanecarbonyl)piperazine-1-carbonyl]-3-chlorophenyl]-5-[1-(2-fluoroethyl)-3-(trifluoromethyl)pyrazol-4-yl]-1-methylimidazole-2-carboxamide;hydrochloride], 347 nM.
